Measurements as given in paper PMC10447463, “Data-mining unveils structure–property–activity correlation of viral infectivity enhancing self-assembling peptides” (Nature Communications, 2023).
Where two headings read alike, the source gives them in different places.

Tests used:
[1] = tested on: HIV-1 infection of TZM-bl cells; assay: HIV-1 infectivity enhancement assay, β-galactosidase luminescence; format: cell-based; conditions: for Rel-EFC / Log10 Infection Rel EFC: 1.3 µM peptide; for Rel-EFC: infection relative to EF-C (QCKIKQIINMWQ = 1); for Log10 Infection Rel EFC: log10 of infection relative to EF-C; for Log Infectivity: Log10 infection relative to EF-C, asymmetric std dev errors; for Log Infectivity / Abs. Inf.: TZM-bl cells; for Log10 Infection Rel EF-C: HIV-1 infection of TZM-bl cells; for Log10 of Rel to EFC (Feb2021): Log10 of infection relative to EF-C, all peptides of FigS16; for Abs. Inf. / RLU s-1: absolute infection rate, peptide 1.3 µM on cells, virus preincubated 10 min with fibrils, read 3 days post infection; for Abs. Infection at 0.26 µM / Infect 1 0.26 µM / Infect 2 0.26 µM / Infect 3 0.26 µM: peptide 0.26 µM; for Abs. Inf.: absolute HIV-1 infection signal, β-galactosidase luminescence; for Infect 1 0.26 µM / Infect 1 .3 µM: replicate 1, absolute infection signal; for Infect 1 0.26 µM / Infect 2 0.26 µM / Infect 3 0.26 µM / Infect 1 .3 µM / Infect 2 1.3µM / Infect 3 1.3 µM: Figure 4A; for Infect 2 0.26 µM / Infect 2 1.3µM: replicate 2, absolute infection signal; for Infect 3 0.26 µM / Infect 3 1.3 µM: replicate 3, absolute infection signal; for Abs. Infection at 1.3 µM / Infect 1 .3 µM / Infect 2 1.3µM / Infect 3 1.3 µM: peptide 1.3 µM
[2] = format: physicochemical; conditions: for ThT Cat. / ThT-Fluorescence (categorical): ThT-active if fluorescence at least twice the control
How it was run: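 Preformed peptide fibrils (1 mg/mL) mixed with 50 µM ThT in PBS, 15 min at RT, fluorescence ex 440/em 488 nm versus PBS blank, triplicates. Zeta potential: peptides at 1 mg/mL in PBS pH 7.4, aged 1 d at RT, diluted in 1 mM KCl, Smoluchowski from electrophoretic mobility.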

[3] = Conversion rate (CR) assay with fluorescamine; format: physicochemical; parameters: key to CR: % = 100−100×filtrate/original fluorescence intensity; conditions: conversion rate, fluorescamine assay; for CR / %: Fig. S7 panel B
Experimental: For ATR FT–IR spectroscopy measurements, 200 µL of the respective 1 mg/mL PNF solution was lyophilized and the resulting powder used for measurement. All spectra were recorded on a Bruker Tensor 27 spectrometer with a diamond crystal as ATR element (PIKE MiracleTM, spectral resolution 2 cm^-1). Every sample was measured with 64 scans. Data were analyzed with OriginLab software and calculation of β–sheet content was conducted according to a previous report. TEM. For TEM measurements 5 µL of PNF fibrils (1 mg/mL) were placed on copper grids coated with carbon and formvar layer (300 mesh, Plano GmbH). After 10 min incubation time, the grids were staining with 4% uranyl acetate solution for 2.5 min and washed with water. Measurements were performed on a Jeol 1400 electron microscope with 120 kV acceleration voltage. CR Assay. For the determination of the amount of peptide monomer converting into nanostructures the amine reactive dye fluorescamine was used analogous to a previous reported protocol. Briefly, 100 µL of the preformed PNF solution was centrifuged in a Vivaspin 500 tube (3 kDa MWCO) to separate fibers from free peptide monomer (16200 x g, 4 °C, 45 min). The filtrate and 100 μL of the non-filtered PNF sample were lyophilized and dissolved in 30 μL DMSO. 10 μL of the filtrate and non-filtered DMSO samples were submitted in a black UV Star® 384 microliter well–plates (Greiner bio–one) and 3 μL of the fluorescamine solution (10 mg/mL, DMSO) was added to measure the fluorescence enhancement. After 20 min of incubation at RT, fluorescence was recorded on an Infinite® M1000 PRO microplate reader (Tecan) at λem = 470 nm upon excitation at λex = 365 nm with 10 nm bandwidths and multiple reads per well (3×3). Measurements were repeated in triplicates and averaged with standard deviation. All values were calculated as n-fold fluorescence enhancement (DMSO only as a reference was set to 1). The conversion rate CR was defined according to the equation Eq. (3).3 CR=100−100×fluorescenceintensityfiltrate/fluorescenceintensityoriginal[%]

[4] = Fig. S7 panel A (plotted against β-sheet content)
[5] = Fig. S7 panel B (plotted against CR), rounded to two decimals
[6] = Log10 of infection rate relative to EF-C, Figure 3A source data
[7] = infection rate relative to EF-C, log10, data of Figure 2D
[8] = infection rate relative to EF-C, log10, source data of Figure 2C
[9] = ThT fluorescence category, 1 if Rel. ThT >2

| Substance | Rel-EFC [1] | Log10 Infection Rel EFC [1] | Log Infectivity [1, 4] | Log Infectivity [1, 5] | Log10 Infection Rel EF-C [1, 6] | Log10 Infection Rel EF-C [1, 7] | Log10 Infection Rel EF-C [1, 8] | Log10 of Rel to EFC (Feb2021) [1] | Tht category (> 2 to blank = +) ([2]; Fig S10 panel D) | ThT Cat. ([2]; Fig S10 panel E) | ThT Cat, ([2]; ThT category, 1 if Rel. ThT >2) | ThT Cat. [2, 9] | ThT Cat. / ThT-Fluorescence (categorical) [2] | CR / % [3] | CR [3] | Tht category (> 2 to blank = +) ([2]; FigS12 panel A) | ThT Cat, ([2]; FigS12 panel B) | other results |
| --- | --- | --- | --- | --- | --- | --- | --- | --- | --- | --- | --- | --- | --- | --- | --- | --- | --- | --- |
| CKIKIQI | 1,02 | 0,01 | 0.0081 | 0.01 | 0.01 | 0.0081 | 0.0081 | 0.01 | 1 (ThT. Cat is 1, if Rel. ThT >2) | 1 (ThT. Cat is 1, if Rel. ThT >2) | 1 (ThT. Cat is 1, if Rel. ThT >2) | 1 (ThT. Cat is 1, if Rel. ThT >2) | 1 (ThT. Cat is 1, if Rel. ThT >2) | 54% | 54 |  |  | Abs. Inf. / RLU s-1 ([1]; mean of triplicate): 19406.66667 RLU s-1; Abs. Infection at 0.26 µM ([1]; mean of triplicate): 4967; Infection RLU/s, 1.3 µm abs ([1]; peptide 1.3 µm (so in the source), mean of the 3 replicates): 19406.66667 RLU/s |
| CKIKIQINM | 1,59 | 0,2 | 0.2012 | 0.2 | 0.2 | 0.2012 | 0.2012 | 0.2 | 1 (ThT. Cat is 1, if Rel. ThT >2) | 1 (ThT. Cat is 1, if Rel. ThT >2) | 1 (ThT. Cat is 1, if Rel. ThT >2) | 1 (ThT. Cat is 1, if Rel. ThT >2) | 1 (ThT. Cat is 1, if Rel. ThT >2) | 75.5% | 75.5 |  |  |  |
| CKIKIQIRGD | 0,33 | -0,48 | -0.4842 | -0.48 | -0.48 | -0.4842 | -0.4842 | -0.48 | 0 (ThT-inactive (N-Fold <2)) | 0 (ThT-inactive (N-Fold <2)) | 0 (ThT-inactive (N-Fold <2)) | 0 (ThT-inactive (N-Fold <2)) | 0 (ThT-inactive (N-Fold <2)) | 91% | 91 |  |  |  |
| CKIKQII | 0,04 | -1,38 | -1.379 | -1.38 | -1.38 | -1.379 | -1.379 |  | 1 (ThT. Cat is 1, if Rel. ThT >2) | 1 (ThT. Cat is 1, if Rel. ThT >2) | 1 (ThT. Cat is 1, if Rel. ThT >2) | 1 (ThT. Cat is 1, if Rel. ThT >2) | 1 (ThT. Cat is 1, if Rel. ThT >2) | 55% | 55 | 1 (ThT. Cat is 1, if Rel. ThT >2) | 1 (ThT. Cat is 1, if Rel. ThT >2) | Abs. Inf. / RLU s-1 ([1]; mean of triplicate): 796.7 RLU s-1; Abs. Infection at 0.26 µM ([1]; mean of triplicate): 430 |
| CKIKQIINMWQ | 1,24 | 0,09 | 0.09484 | 0.09 | 0.09 | 0.09484 | 0.09484 | 0.09 | 1 (ThT. Cat is 1, if Rel. ThT >2) | 1 (ThT. Cat is 1, if Rel. ThT >2) | 1 (ThT. Cat is 1, if Rel. ThT >2) | 1 (ThT. Cat is 1, if Rel. ThT >2) | 1 (ThT. Cat is 1, if Rel. ThT >2) | 50% | 50 |  |  |  |
| CKIW | 0,05 | -1,29 | -1.286 | -1.29 | -1.29 | -1.286 | -1.286 |  | 0 (ThT-inactive (N-Fold <2)) | 0 (ThT-inactive (N-Fold <2)) | 0 (ThT-inactive (N-Fold <2)) |  | 0 (ThT-inactive (N-Fold <2)) | 48.3% | 48.26 | 0 (ThT-inactive (N-Fold <2)) | 0 (ThT-inactive (N-Fold <2)) | Abs. Inf. [1]: 290; ThT Cat. ([2]; ThT category, 1 if Rel. ThT >2): 0 (ThT-inactive (N-Fold <2)) |
| CSISIQI | 0,06 | -1,25 | -1.252 | -1.25 | -1.25 | -1.252 | -1.252 |  | 1 (ThT. Cat is 1, if Rel. ThT >2) | 1 (ThT. Cat is 1, if Rel. ThT >2) | 1 (ThT. Cat is 1, if Rel. ThT >2) | 1 (ThT. Cat is 1, if Rel. ThT >2) | 1 (ThT. Cat is 1, if Rel. ThT >2) | 79.3% | 79.31 | 1 (ThT. Cat is 1, if Rel. ThT >2) | 1 (ThT. Cat is 1, if Rel. ThT >2) | Abs. Infection at 0.26 µM ([1]; mean of n = 3, Figure 4A): 1390; Infect 1 0.26 µM [1]: 1340; Infect 2 0.26 µM [1]: 1160; Infect 3 0.26 µM [1]: 1670; Abs. Infection at 1.3 µM ([1]; mean of n = 3, Figure 4A): 3087; Infect 1 .3 µM [1]: 3310; Infect 2 1.3µM [1]: 2600; Infect 3 1.3 µM [1]: 3350 |
| CSISIQINM | 0,2 | -0,7 | -0.7027 | -0.7 | -0.7 | -0.7027 | -0.7027 | -0.7 | 1 (ThT. Cat is 1, if Rel. ThT >2) | 1 (ThT. Cat is 1, if Rel. ThT >2) | 1 (ThT. Cat is 1, if Rel. ThT >2) | 1 (ThT. Cat is 1, if Rel. ThT >2) | 1 (ThT. Cat is 1, if Rel. ThT >2) | 86% | 86 |  |  |  |
| EIEIQINM | 0,04 | -1,44 | -1.44 | -1.44 | -1.44 | -1.44 | -1.44 |  | 0 (ThT-inactive (N-Fold <2)) | 0 (ThT-inactive (N-Fold <2)) | 0 (ThT-inactive (N-Fold <2)) |  | 0 (ThT-inactive (N-Fold <2)) | 78.4% | 78.43 | 0 (ThT-inactive (N-Fold <2)) | 0 (ThT-inactive (N-Fold <2)) | Abs. Inf. [1]: 203.3; Abs. Infection at 0.26 µM ([1]; mean of n = 3, Figure 4A): 203.3; Infect 1 0.26 µM [1]: 203.33; Infect 2 0.26 µM [1]: 123.33; Infect 3 0.26 µM [1]: 283.33; Abs. Infection at 1.3 µM ([1]; mean of n = 3, Figure 4A): 203.3; Infect 1 .3 µM [1]: 253.33; Infect 2 1.3µM [1]: 173.33; Infect 3 1.3 µM [1]: 183.33; ThT Cat. ([2]; ThT category, 1 if Rel. ThT >2): 0 (ThT-inactive (N-Fold <2)) |
